Measurements published in ChEMBL document CHEMBL1177888, “Mn(II), Co(II) and Zn(II) complexes with heterocyclic substituted thiosemicarbazones: synthesis, characterization, X-ray crystal structures and antitumor comparison” (Eur J Med Chem, 2010).

Test system: K562
Assay: Cytotoxicity against human K562 cells after 48 hrs by MTT assay
Format: functional, cell-based
Conditions: K562, 48 h

Row | SMILES | IC50 [µM]
1 | S=C(N/N=C(\c1ccccc1)c1ccccn1)Nc1ccccc1 | 1.43
2 | C/C(=N\NC(N)=S)c1ccccn1 | 29.7
3 | CNC(=S)N/N=C(\C)c1ccccn1 | 4.58
